Source: US20250248970A1, “NOVEL SUBSTITUTED FLUORINATED N-PROPYL-PYRROLIDINE COMPOUNDS, PROCESSES FOR THEIR PREPARATION AND THERAPEUTIC USES THEREOF” (SANOFI, priority 2022, published 2025)

Tests used:
[1] = molecular target: T1, ERα (Homo sapiens, UniProt P03372); test: Estrogen receptor degradation activity (breast cancer cell ERα in cell western assay); format: cell-based; conditions: MCF7 cells, 0.3 μM, 4 hours, % of ERα levels decrease relative to fulvestrant
T1 construct: host or cells: MCF7
T1 sequence (P03372 1-595): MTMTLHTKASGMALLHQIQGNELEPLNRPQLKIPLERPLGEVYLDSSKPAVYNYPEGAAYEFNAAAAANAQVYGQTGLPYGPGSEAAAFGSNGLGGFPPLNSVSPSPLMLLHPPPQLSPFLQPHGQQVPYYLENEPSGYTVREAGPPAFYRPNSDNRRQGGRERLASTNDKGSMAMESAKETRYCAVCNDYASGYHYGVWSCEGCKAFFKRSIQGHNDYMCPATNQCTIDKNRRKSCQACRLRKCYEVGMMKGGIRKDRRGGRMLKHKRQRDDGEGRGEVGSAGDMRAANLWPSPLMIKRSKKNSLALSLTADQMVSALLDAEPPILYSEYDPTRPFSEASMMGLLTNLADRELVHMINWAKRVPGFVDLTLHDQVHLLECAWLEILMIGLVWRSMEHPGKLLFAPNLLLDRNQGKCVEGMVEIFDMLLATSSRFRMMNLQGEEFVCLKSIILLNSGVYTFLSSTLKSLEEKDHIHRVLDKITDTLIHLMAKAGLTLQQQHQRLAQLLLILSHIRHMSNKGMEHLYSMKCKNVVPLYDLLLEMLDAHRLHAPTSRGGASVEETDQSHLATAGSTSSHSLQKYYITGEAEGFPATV
In short: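 MCF7 cells in phenol red-free MEM alpha with 5% charcoal-stripped FBS were exposed for 4 h to 9-point 1:5 dilutions (0.3–0.0000018 μM final). In-cell western: anti-ERα immunofluorescence normalized to Syto-64 DNA stain, scaled between DMSO and 0.1 μM fulvestrant; IC50 as 50% ERα degradation, in nM.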

[2] = test system: CYP3A4; test: CYP3A4 induction potential for ADME profile evaluation (CYP3A4 mRNA by RT-PCR in primary human hepatocytes); format: in vitro ADME; conditions: for CYP3A4 induction Emax (%): approximately 48 hours, 0.3-10 μM, relative to 10 μM rifampicin
Method: Such test is based, for example, on the quantification of CYP3A4 mRNA induction performed by RT-PCR analysis. Said % Emax may be calculated as detailed in the illustrative part under the following formula:
[formula] • ECompound: relative fold mRNA expression following treatment with test compound, • EPositive control: relative fold mRNA expression following reference inducer i.e., 10 μM rifampicin, • EVehicle control: relative fold mRNA expression following vehicle treatment i.e., 0.1% DMSO, and • E is the efficiency of the quantitative PCR.
Said test evaluates the potential induction effect of the tested compounds on CYP3A4 gene expression in primary cultures of human hepatocytes from one or two donors with established concentration-dependent response to the reference inducer, rifampicin.
Before seeding, cell viability was estimated using the Trypan blue dye exclusion test. Hepatocytes were seeded on collagen I-coated 96-well plates at a density of 70 000 cells/well in 100 μL of plating medium for at least 4 hours under a humidified atmosphere of CO2/air (5%/95%), at 37° C. After the cell attachment period, the plating medium was removed, and the hepatocytes were treated daily for 2 consecutive days (approximately 48 hours), with 100 μL per well of fresh culture medium containing either the vehicle control (0.1% DMSO) or the investigated compounds at four concentrations 0.3, 1, 3 and 10 μM, or rifampicin, the reference inducer at 10 μM. All incubations were performed in duplicates.
Ten mM stock solutions of the different compounds were diluted to obtain 0.3, 1 and 3 mM daughter solutions. The day of the experiment, stock solutions were diluted 1000-fold in the incubation/culture medium to achieve final concentrations of 0.3, 1, 3 and 10 μM.
After the 48-hour incubation period with the test compounds, the cell culture medium was removed, and the cells were lysed to release the RNA for CYP3A4 gene expression assessment. Quantification of CYP3A4 mRNA induction was performed by RT-PCR analysis.
Total RNA was extracted from hepatocytes using the King Fisher™ Flex Purification System with the MagMAX mirVana Total RNA Isolation kit (Thermo Fisher Scientific, USA). RNA was quantified by fluorimetry using the Quantifluor RNA System (Promega, USA) and cDNAs were synthesized from […] total RNA using the iScript Reverse Transcription Supermix for RT-qPCR from Biorad (France) at 42° C. for 30 min. cDNA samples were then diluted in water (1:5) and 5 μL of each sample was used for real-time PCR amplification by using the SYBR Green kit from Biorad (France). The following program was used: a denaturation step at 95° C. for 30 sec, and 40 cycles of PCR (denaturation, 95° C., 10 sec and annealing and extension, 58° C., 1 min). In all cases, the quality of the PCR product was assessed by monitoring a fusion step at the end of the run. Human forward and reverse primer sequences used were: 5′-CCT-GGC-ACC-CAG-CAC-AAT-3′ and 5′-GGG-CCG GAC-TCG-TCA-TAC-3′ for actin, 5′-CAC-AAA-CG-GAG-GCC-TTT-TG-3′ and 5′-ATC-CAT-GCT-GTA-GGC-CCC-AA-3′ for CYP3A4.
Cq (quantification cycle) values were determined using a multi-variable, non-linear regression model to individual well traces and then using this model an optimal Cq value was computed. Cq values are inversely proportional to the amount of target nucleic acid in the sample (i.e., lowest Cq level corresponds to the greatest amount of target nucleic acid in the sample). Cq of reference gene (in this study human actin) was also used as positive control of quantitative PCR.
The extent of induction or % of Emax, resulting from treatment with test compounds was calculated under the following formula: […]

Row | SMILES | % Degradation At 0.3 μM [1] [%] | CYP3A4 induction Emax (%) [2] [%] | CYP3A4 induction (in words) ([2]; rating based on % Emax relative to rifampicin)
1 | O=C(O)c1ccc2c(c1)CCCC(c1ccc(Cl)cc1Cl)=C2c1ccc(C[C@H]2CCN(CCCF)C2)cc1 [Compound 1, 8-(2,4-dichlorophenyl)-9-(4-((1-(3-fluoropropyl)pyrrolidin-3-yl)methyl)phenyl)-6,7-dihydro-5H-benzo[7]annulene-3-carboxylic acid, (S) Isomer] | 85 | 7 | no CYP3A4 induction
2 | O=C(O)c1ccc2c(c1)CCCC(c1cccc(Cl)c1F)=C2c1ccc(CC2CCN(CCCF)C2)cc1 (single isomer, unassigned; isomer 1) [Compound 16, 8-(3-chloro-2-fluorophenyl)-9-(4-((1-(3-fluoropropyl)pyrrolidin-3-yl)methyl)phenyl)-6,7-dihydro-5H-benzo[7]annulene-3-carboxylic acid, Isomer 1] | 88 | 22 | 
3 | CC1(C)CC=C(C2=C(c3ccc(CC4CCN(CCCF)C4)cc3)c3ccc(C(=O)O)cc3CCC2)CC1.Cl (single isomer, unassigned; isomer 1) [Compound 11, 8-(4,4-dimethylcyclohex-1-en-1-yl)-9-(4-((1-(3-fluoropropyl)pyrrolidin-3-yl)methyl)phenyl)-6,7-dihydro-5H-benzo[7]annulene-3-carboxylic acid hydrochloride, Isomer 1] | 90 | 11 | 
